The results in this text go back to patent US8796428B2, “Erk1/2 posphorylation site specific antibody” (Julius-Maximilians-Universitaet Wuerzburg, priority 2008, dated 2014).

One test concerns Mek1/2. The test can be described thus: Co-immunoprecipitation of HA-Raf1 with Gβ in HEK293 cells. It counts as cell-based. To be noted: PD98059 50 μM, CCH, 5 min. Here is the method:
The inventors prepared cell lysates and tissue lysates using lysis buffer (0.5% (v/v) NP-40, 150 mM NaCl, 25 mM Na4P2O7, 50 mM β-glycerol phosphate disodium salt, 2 mM EDTA, 2 mM EGTA, 25 mM Tris, pH 8.0, 10% (v/v) glycerol, 10 μg ml^−1 soybean trypsin inhibitor, 1 mM benzamidine, 1 mM PMSF, 50 mM NaF, 0.1 mM Na3VO4, 0.002% (w/v) NaN3) similarly as described (Lorenz et al., 2003). The inventors determined the interaction of Gβγ with endogenous Raf1, ERK1/2, HA-tagged Raf1 or HA-tagged Erk2 constructs by immunoprecipitation with the respective antibodies (as indicated in the figures). After immunoprecipitation, the inventors detected co-immunoprecipitated proteins in immunoblot analyses using the respective antibodies (as indicated in the figures). Before lysis, the inventors incubated adult or neonatal cardiomyocytes with or without agonist as indicated (angiotensinII, 100 nM, 5 min or 24 h; carbachol, 300 μM, 10 min or 36 h; neuregulin1-β1, 20 ng ml^−1, 10 min or 24 h; phenylephrine, 35 μM, 5 min or 48 h). […] The inventors prepared ventricular tissue from mouse hearts derived from male 129SvEv (FIG. 1g,h), FVB/N wild-type (WT) or Erk2^T188-transgenic mice (1188T, T188D, T188S, T188A) (FVB/N background) without or after transverse aortic constriction (TAC, see Fig. legends for the duration of TAC) or carbachol-infusion. Control animals were strain-, age- and gender-matched. […]

For the next test, the system named is Mek. Nature of the test: Determination of total inositol phosphates in HEK293-cells. The class given is cell-based. The settings on record: carbachol 50 μM, 15 min. As for the experimental part:
For determination of total inositol phosphates, the inventors transfected HEK293-cells with the indicated Erk2-constructs. After labeling of the cells with myo-[2-^3H]-inositol (1 mCi ml^−1) in inositol-free DMEM for 24 h, the inventors incubated the cells in incubation buffer (137 mM NaCl, 5 mM KCl, 10 mM LiCl, 1 mM CaCl2, 1 mM MgCl2, 10 mM HEPES, […]) for 15 min. The inventors extracted the inositol phosphates by addition of HClO4 (20%) before neutralizing the extract with KOH (1 M), removing the precipitates by centrifugation and applying the supernatants to anion exchange columns (DowexAG1×8, Biorad). The inventors then eluted total inositol phosphates by HCl (1 M) and measured the incorporated radioactivity by scintillation counting.

The next test relates to Src-kinase. The test can be described thus: Neuregulin-induced hypertrophic effects in neonatal cardiomyocytes with Src-kinase inhibitor. It counts as cell-based, rat. As for the experimental part: (§1) The inventors assessed phosphorylation of Gαq/11 by immunoprecipitation of Gαq/11 from lysates of neonatal cardiomyocytes without or with neuregulin1-β1 treatment (20 ng ml^−1, 10 min) using Gαq/11-specific antibodies (sc-392 AC, Santa Cruz) followed by detection of phosphotyrosine and immunoprecipitated Gαq/11 by immunoblot analyses. The inventors prepared the lysates as described above.
The inventors measured protein synthesis rates in isolated cardiomyocytes by [^3H]isoleucine incorporation. The inventors seeded transfected cardiomyocytes on 24-well plates in MEM supplemented with bromodeoxyuridine (25 mg l^−1), cobalamin (2 mg l^−1), NaHCO3 (350 mg l^−1), penicillin (100 U ml^−1), streptomycin (100 μg ml^−1) and 5% (v/v) fetal calf serum. After 24 h, the inventors reduced the serum concentration to 1% for 1 day followed by fasting in serum-free medium for 24-48 h. Thereafter, the inventors labeled the cells with [^3H]isoleucine (1 μCi ml^−1) for 24-48 h in the absence or presence of 100 nM angiotensinII, 300 μM carbachol, 10 ng ml^−1 neuregulin1-β1 or 35 μM (R)-(−)-phenylephrine as indicated. The inventors measured radioactivity incorporated into the TCA (trichloroacetic acid)-precipitable material by scintillation counting.

In test [1] the test system is Gβγ interaction with Raf1 and Erk1/2. Nature of the test: Co-immunoprecipitation of Gβγ with Raf1 and Erk1/2 in neonatal rat cardiomyocytes. The class given is cell-based. The settings on record: angiotensinII 100 nM 5 min, carbachol 300 μM 10 min, neuregulin 20 ng ml^−1 10 min. Here is the method: (§2) The inventors prepared cell lysates and tissue lysates using lysis buffer (0.5% (v/v) NP-40, 150 mM NaCl, 25 mM Na4P2O7, 50 mM β-glycerol phosphate disodium salt, 2 mM EDTA, 2 mM EGTA, 25 mM Tris, pH 8.0, 10% (v/v) glycerol, 10 μg ml^−1 soybean trypsin inhibitor, 1 mM benzamidine, 1 mM PMSF, 50 mM NaF, 0.1 mM Na3VO4, 0.002% (w/v) NaN3) similarly as described (Lorenz et al., 2003). The inventors determined the interaction of Gβγ with endogenous Raf1, ERK1/2, HA-tagged Raf1 or HA-tagged Erk2 constructs by immunoprecipitation with the respective antibodies (as indicated in the figures). After immunoprecipitation, the inventors detected co-immunoprecipitated proteins in immunoblot analyses using the respective antibodies (as indicated in the figures). Before lysis, the inventors incubated adult or neonatal cardiomyocytes with or without agonist as indicated (angiotensinII, 100 nM, 5 min or 24 h; carbachol, 300 μM, 10 min or 36 h; neuregulin1-β1, 20 ng ml^−1, 10 min or 24 h; phenylephrine, 35 μM, 5 min or 48 h). HEK293-cells were cultured in the absence or presence of carbachol (100 μM, 6 min) or UK14304 (1 μM, 10 min) before lysis. […]

The subject of another test is Erk1/2. The test can be described thus: Immunoblot of Thr188-phosphorylation of Erk1/2 in cardiomyocytes. The settings on record: 20 ng ml^−1. The class given is cell-based. Here is the method:
as §2, with “[…];” for “neuregulin1-β1, 20 ng ml^−1, 10 min or 24 h;”

The next test has as its system Gαq/11. Nature of the test: Detection of tyrosine phosphorylated Gαq/11 in neonatal cardiomyocytes. The class given is cell-based, rat. To be noted: 20 ng ml^−1, 10 min. Here is the method:
as §1

On to `COc1cccc(-c2cc(=O)c3ccccc3o2)c1N` [PD98059], for which, in the test on Mek1/2, the “carbachol-stimulated interaction of HA-Raf1 with Gβ” value is “suppressed”. For the same molecule, in the test on Mek, the “carbachol-stimulated inositol phosphate signaling compared to control cells” value is given as “enhanced”.

`CC(C)(C)n1nc(-c2ccc(Cl)cc2)c2c(N)ncnc21` [PP2]: the “effect on neuregulin-induced effects (Gβγ co-immunoprecipitation, Gαq/11 phosphorylation, protein synthesis)” value in the test on Src-kinase is reported as “blocked”.

“angiotensinII (DRVYIHPF; Angiotensin-2; UniProt P01019 25-32, looked up) [triggers hypertrophy via Gq-coupled AT1-receptors]”: in test [1], the “co-immunoprecipitation of Gβγ with both Raf1 and Erk1/2” value was “markedly enhanced”.

As to neuregulin1-β1, the “Thr188-phosphorylation of Erk1/2” value in the test with Erk1/2 was “induced”. In test [1], the “co-immunoprecipitation of Gβγ with both Raf1 and Erk1/2” value is listed as “permitted”. The “phosphorylation of Gαq/11 at Tyr356” value with Gαq/11 was “triggered”.
